In ChEMBL document CHEMBL4020788, “Synthesis, SAR and molecular docking studies of benzo[d]thiazole-hydrazones as potential antibacterial and antifungal agents” (2017):
Converted amounts (≈) assume the structure as drawn. The source made the active and inactive calls. The rule behind the calls is not given here.

Legend:
Assay type in all cases: functional
[1] = tested on: Staphylococcus aureus; assay: Antibacterial activity against Staphylococcus aureus at 50 ug/ml after 24 hrs by agar well diffusion method; settings: read-out: DIZ
[2] = tested on: Aspergillus niger; assay: Antifungal activity against Aspergillus niger at 75 ug/ml after 48 hrs by agar well diffusion method; settings: for zone of inhibition at 75 µg/mL: read-out: DIZ
[3] = tested on: Aspergillus niger; assay: Antifungal activity against Aspergillus niger at 100 ug/ml after 48 hrs by agar well diffusion method; settings: for zone of inhibition at 100 µg/mL: read-out: DIZ
[4] = tested on: Staphylococcus aureus; assay: Antibacterial activity against Staphylococcus aureus incubated for overnight by microdilution method
[5] = tested on: Staphylococcus aureus; assay: Antibacterial activity against methicillin resistant Staphylococcus aureus MRSA090 incubated for overnight by microdilution method
[6] = tested on: Fusarium oxysporum; assay: Antifungal activity against Fusarium oxysporum at 50 ug/ml after 48 hrs by agar well diffusion method; settings: for zone of inhibition at 50 µg/mL: read-out: DIZ
[7] = tested on: Klebsiella pneumoniae; assay: Antibacterial activity against Klebsiella pneumoniae at 100 ug/ml after 24 hrs by agar well diffusion method; settings: read-out: DIZ
[8] = tested on: Bacillus subtilis; assay: Antibacterial activity against Bacillus subtilis at 75 ug/ml after 24 hrs by agar well diffusion method; settings: read-out: DIZ
[9] = tested on: Bacillus subtilis; assay: Antibacterial activity against Bacillus subtilis incubated for overnight by microdilution method
[10] = tested on: Escherichia coli; assay: Antibacterial activity against Escherichia coli incubated for overnight by microdilution method
[11] = tested on: Escherichia coli; assay: Antibacterial activity against Escherichia coli at 100 ug/ml after 24 hrs by agar well diffusion method; settings: read-out: DIZ
[12] = tested on: Fusarium verticillioides; assay: Antifungal activity against Fusarium moniliforme at 50 ug/ml after 48 hrs by agar well diffusion method; settings: for zone of inhibition at 50 µg/mL: read-out: DIZ
[13] = tested on: Staphylococcus aureus; assay: Antibacterial activity against methicillin resistant Staphylococcus aureus MRSA090 at 25 ug/ml after 24 hrs by agar well diffusion method; settings: MRSA090, 24 h, read-out: DIZ
[14] = tested on: Staphylococcus aureus; assay: Antibacterial activity against methicillin resistant Staphylococcus aureus MRSA090 at 75 ug/ml after 24 hrs by agar well diffusion method; settings: MRSA090, 24 h, read-out: DIZ
[15] = tested on: Staphylococcus aureus; assay: Antibacterial activity against Staphylococcus aureus at 75 ug/ml after 24 hrs by agar well diffusion method; settings: read-out: DIZ
[16] = tested on: Escherichia coli; assay: Antibacterial activity against Escherichia coli at 50 ug/ml after 24 hrs by agar well diffusion method; settings: read-out: DIZ
[17] = tested on: Bacillus subtilis; assay: Antibacterial activity against Bacillus subtilis at 50 ug/ml after 24 hrs by agar well diffusion method; settings: read-out: DIZ
[18] = tested on: Bacillus subtilis; assay: Antibacterial activity against Bacillus subtilis at 25 ug/ml after 24 hrs by agar well diffusion method; settings: for zone of inhibition at 25 µg/mL: read-out: DIZ
[19] = tested on: Fusarium verticillioides; assay: Antifungal activity against Fusarium moniliforme at 75 ug/ml after 48 hrs by agar well diffusion method; settings: for zone of inhibition at 75 µg/mL: read-out: DIZ
[20] = tested on: Fusarium oxysporum; assay: Antifungal activity against Fusarium oxysporum at 100 ug/ml after 48 hrs by agar well diffusion method; settings: for zone of inhibition at 100 µg/mL: read-out: DIZ
[21] = tested on: Staphylococcus aureus; assay: Antibacterial activity against methicillin resistant Staphylococcus aureus MRSA090 at 100 ug/ml after 24 hrs by agar well diffusion method; settings: MRSA090, 24 h, read-out: DIZ
[22] = tested on: Staphylococcus aureus; assay: Antibacterial activity against methicillin resistant Staphylococcus aureus MRSA090 at 50 ug/ml after 24 hrs by agar well diffusion method; settings: MRSA090, 24 h, read-out: DIZ
[23] = tested on: Escherichia coli; assay: Antibacterial activity against Escherichia coli at 75 ug/ml after 24 hrs by agar well diffusion method; settings: read-out: DIZ
[24] = tested on: Fusarium oxysporum; assay: Antifungal activity against Fusarium oxysporum at 75 ug/ml after 48 hrs by agar well diffusion method; settings: for zone of inhibition at 75 µg/mL: read-out: DIZ
[25] = tested on: Staphylococcus aureus; assay: Antibacterial activity against Staphylococcus aureus at 25 ug/ml after 24 hrs by agar well diffusion method; settings: read-out: DIZ
[26] = tested on: Aspergillus niger; assay: Antifungal activity against Aspergillus niger at 25 ug/ml after 48 hrs by agar well diffusion method; settings: for zone of inhibition at 25 µg/mL: read-out: DIZ
[27] = tested on: Bacillus subtilis; assay: Antibacterial activity against Bacillus subtilis at 100 ug/ml after 24 hrs by agar well diffusion method; settings: read-out: DIZ
[28] = tested on: Klebsiella pneumoniae; assay: Antibacterial activity against Klebsiella pneumoniae at 75 ug/ml after 24 hrs by agar well diffusion method; settings: read-out: DIZ
[29] = tested on: Fusarium verticillioides; assay: Antifungal activity against Fusarium moniliforme at 100 ug/ml after 48 hrs by agar well diffusion method; settings: for zone of inhibition at 100 µg/mL: read-out: DIZ
[30] = tested on: Klebsiella pneumoniae; assay: Antibacterial activity against Klebsiella pneumoniae at 50 ug/ml after 24 hrs by agar well diffusion method; settings: read-out: DIZ
[31] = tested on: Aspergillus niger; assay: Antifungal activity against Aspergillus niger at 50 ug/ml after 48 hrs by agar well diffusion method; settings: for zone of inhibition at 50 µg/mL: read-out: DIZ
[32] = tested on: Fusarium verticillioides; assay: Antifungal activity against Fusarium moniliforme at 25 ug/ml after 48 hrs by agar well diffusion method; settings: for zone of inhibition at 25 µg/mL: read-out: DIZ
[33] = tested on: Staphylococcus aureus; assay: Antibacterial activity against Staphylococcus aureus at 100 ug/ml after 24 hrs by agar well diffusion method; settings: read-out: DIZ
[34] = tested on: Escherichia coli; assay: Antibacterial activity against Escherichia coli at 25 ug/ml after 24 hrs by agar well diffusion method; settings: read-out: DIZ
[35] = tested on: Klebsiella pneumoniae; assay: Antibacterial activity against Klebsiella pneumoniae at 25 ug/ml after 24 hrs by agar well diffusion method; settings: read-out: DIZ
[36] = tested on: Fusarium oxysporum; assay: Antifungal activity against Fusarium oxysporum at 25 ug/ml after 48 hrs by agar well diffusion method; settings: for zone of inhibition at 25 µg/mL: read-out: DIZ

Compound	zone of inhibition at 50 µg/mL [1]	zone of inhibition at 75 µg/mL [2]	zone of inhibition at 100 µg/mL [7]	zone of inhibition at 75 µg/mL [8]	zone of inhibition at 100 µg/mL [11]	zone of inhibition at 25 µg/mL [13]	zone of inhibition at 75 µg/mL [14]	zone of inhibition at 75 µg/mL [15]	zone of inhibition at 50 µg/mL [16]	zone of inhibition at 50 µg/mL [17]	zone of inhibition at 100 µg/mL [21]	zone of inhibition at 50 µg/mL [22]	zone of inhibition at 75 µg/mL [23]	zone of inhibition at 25 µg/mL [25]	zone of inhibition at 100 µg/mL [27]	zone of inhibition at 75 µg/mL [28]	zone of inhibition at 50 µg/mL [30]	zone of inhibition at 100 µg/mL [33]	zone of inhibition at 25 µg/mL [34]	zone of inhibition at 25 µg/mL [35]	other results
COc1ccc(/C=N/Nc2nc3cccc(C)c3s2)cc1	14 mm	14 mm	22 mm	20 mm	10 mm	10 mm	16 mm	19 mm	12 mm	18 mm	21 mm	13 mm	15 mm	12 mm	26 mm	20 mm	16 mm	24 mm	10 mm	14 mm	zone of inhibition at 100 µg/mL [3]: 16 mm; MIC [4]: 30 µg/mL (≈ 101 µM); MIC [5]: 32 µg/mL (≈ 108 µM); diameter of the inhibition zone (DIZ) [6]: inactive; MIC [9]: 28 µg/mL (≈ 94.2 µM); MIC [10]: 27 µg/mL (≈ 90.8 µM); diameter of the inhibition zone (DIZ) [12]: inactive; zone of inhibition at 25 µg/mL [18]: 13 mm; diameter of the inhibition zone (DIZ) [19]: inactive; diameter of the inhibition zone (DIZ) [20]: inactive; diameter of the inhibition zone (DIZ) [24]: inactive; zone of inhibition at 25 µg/mL [26]: 8 mm; diameter of the inhibition zone (DIZ) [29]: inactive; zone of inhibition at 50 µg/mL [31]: 11 mm; diameter of the inhibition zone (DIZ) [32]: inactive; diameter of the inhibition zone (DIZ) [36]: inactive
Cc1cccc2nc(N/N=C/c3ccc([N+](=O)[O-])cc3)sc12	9 mm	17 mm	16 mm	8 mm	14 mm	3 mm	10 mm	12 mm	18 mm	4 mm	16 mm	7 mm	11 mm	7 mm	11 mm	14 mm	11 mm	14 mm	4 mm	7 mm	zone of inhibition at 100 µg/mL [3]: 21 mm; zone of inhibition at 50 µg/mL [6]: 10 mm; diameter of the inhibition zone (DIZ) [12]: inactive; diameter of the inhibition zone (DIZ) [18]: inactive; zone of inhibition at 75 µg/mL [19]: 4 mm; zone of inhibition at 100 µg/mL [20]: 21 mm; zone of inhibition at 75 µg/mL [24]: 14 mm; zone of inhibition at 25 µg/mL [26]: 6 mm; zone of inhibition at 100 µg/mL [29]: 8 mm; zone of inhibition at 50 µg/mL [31]: 13 mm; diameter of the inhibition zone (DIZ) [32]: inactive; zone of inhibition at 25 µg/mL [36]: 6 mm
Cc1cccc2nc(N/N=C/c3ccc(O)cc3)sc12	16 mm	–	26 mm	18 mm	25 mm	14 mm	21 mm	20 mm	19 mm	14 mm	24 mm	17 mm	22 mm	10 mm	21 mm	22 mm	17 mm	23 mm	17 mm	14 mm	diameter of the inhibition zone (DIZ) [2]: inactive; diameter of the inhibition zone (DIZ) [3]: inactive; MIC [4]: 28 µg/mL (≈ 98.8 µM); MIC [5]: 30 µg/mL (≈ 106 µM); diameter of the inhibition zone (DIZ) [6]: inactive; MIC [9]: 26 µg/mL (≈ 91.8 µM); MIC [10]: 25 µg/mL (≈ 88.2 µM); zone of inhibition at 50 µg/mL [12]: 10 mm; zone of inhibition at 25 µg/mL [18]: 11 mm; zone of inhibition at 75 µg/mL [19]: 13 mm; diameter of the inhibition zone (DIZ) [20]: inactive; diameter of the inhibition zone (DIZ) [24]: inactive; diameter of the inhibition zone (DIZ) [26]: inactive; zone of inhibition at 100 µg/mL [29]: 17 mm; diameter of the inhibition zone (DIZ) [31]: inactive; zone of inhibition at 25 µg/mL [32]: 8 mm; diameter of the inhibition zone (DIZ) [36]: inactive
COc1cc(/C=N/Nc2nc3cccc(C)c3s2)cc(Br)c1O	10 mm	16 mm	21 mm	13 mm	21 mm	7 mm	19 mm	13 mm	15 mm	9 mm	20 mm	13 mm	19 mm	8 mm	17 mm	17 mm	14 mm	16 mm	11 mm	9 mm	zone of inhibition at 100 µg/mL [3]: 18 mm; zone of inhibition at 50 µg/mL [6]: 14 mm; zone of inhibition at 50 µg/mL [12]: 13 mm; zone of inhibition at 25 µg/mL [18]: 5 mm; zone of inhibition at 75 µg/mL [19]: 17 mm; zone of inhibition at 100 µg/mL [20]: 20 mm; zone of inhibition at 75 µg/mL [24]: 17 mm; zone of inhibition at 25 µg/mL [26]: 7 mm; zone of inhibition at 100 µg/mL [29]: 20 mm; zone of inhibition at 50 µg/mL [31]: 11 mm; zone of inhibition at 25 µg/mL [32]: 9 mm; zone of inhibition at 25 µg/mL [36]: 8 mm
